Consider ten molecules from US20090186761A1, “Use of bio-derived surfactants for mitigating damage to plants from pests” (Cleareso, LLC, priority 2008, published 2009).

For series [1], the system named is root weevil, Diaprepes abbreviatus. As to the kind of experiment: Root weevil larvae held 30 minutes in concentration series of compounds. The following applies: for Mortality of larvae: 30 minutes immersion, five larvae; for toxicity to larvae as judged: 0.1 to 5.0%, judged at 24 hours from black residue and activity. In kind it is in vivo. On the procedure: The criterion for toxicity with these larvae is the lack of nipping behavior and its consequent black residue from blood loss and the lack of spontaneous movement.
Concentration Series. With the results from the time series above, larvae were held in different concentrations of STMB for 30 minutes. After 30 minutes, solutions were poured off and the trays wiped dry. Assessments were made at 24 or 48 hours with a few assessments at 72 hours dependent on effects. Treatments were: water or carbonated water as controls, and 0.1, 0.5, 1.0, 2.0, 3.0, 4.0 and 5.0% concentrations in either distilled water or carbonated water. Five larvae were used for each control and treatment. Pupae were not used in this assessment.
The use of carbonated water appeared not to increase the efficacy of this treatment. After 48 hours, there appeared to be no difference between 5% STMB in water and 5% STMB in carbonated water. […] In general, 48 hours should be enough for this assessment. Lack of toxicity or high toxicity should show in the first 24 hours.

Series [2] in a line: Solubility of the test preparations in water (observations). The class given is physicochemical.
Series [3] deals with M. javanica. The note with it: tomato root galling; cited from earlier work.
The subject of series [4] is Meloidognye hapla. The following applies: cited from earlier work; for toxicity to nematodes: in vitro; for kill of second stage juveniles: 50 ppm, 24 hours.

For `COC(=O)CCC(=O)OC` [106-65-0, butanedioic acid, dimethyl ester], the Mortality of larvae in series [1] (0.1%, 24 hours) is recorded as 2; in series [1] (1.0%, 24 hours) it was 2; in series [1] (3.0%, 24 hours) it was 1; in series [1] (5.0%, 24 hours), 1. For the same molecule, the “toxicity to larvae as judged” value in series [1] is on record as “non-toxic”. Besides, the solubility of preparation result is reported as “soluble” in series [2] (0.1% in water), “just soluble” in series [2] (1.0% in water), “not soluble” in series [2] (3.0% in water) and “not soluble” in series [2] (5.0% in water).
For `COC(=O)CCCCC(=O)OC` [627-93-0, Dimethyl hexanedioate], the Mortality of larvae in series [1] (0.1%, 24 hours) is 2; in series [1] (1.0%, 24 hours) it was 1; in series [1] (3.0%, 24 hours), 2; in series [1] (5.0%, 24 hours), 3. In series [1], the “toxicity to larvae as judged” value was “non-toxic”. Also, the solubility of preparation entry in series [2] (0.1% in water) is “soluble”; in series [2] (1.0% in water), “not completely soluble”; in series [2] (3.0% in water), “not completely soluble”; in series [2] (5.0% in water) it was “not completely soluble”.
Turning to `COC(=O)CCCC(=O)OC` [1119-40-0, pentanedioic acid, dimethyl ester], the Mortality of larvae was determined as 3 in series [1] (0.1%, 48 hours); 3 in series [1] (0.1%, 72 hours); 1 in series [1] (1.0%, 48 hours); 2 in series [1] (1.0%, 72 hours); 0 in series [1] (3.0%, 48 hours); 0 in series [1] (3.0%, 72 hours). For the same molecule, the Mortality of larvae is on record as 1 in series [1] (5.0%, 48 hours) and 2 in series [1] (5.0%, 72 hours). In addition, the “survival of larvae after 30 minutes” value in series [1] (at end of 30 minutes immersion) is given as “All larvae were alive”.
As for `CCCCCCCCC(=O)OC` [Methyl perlargonate], in series [3], the “concentration producing reduced galling of plants” value was 0.8 microliters/liter.
In the case of `CCCCCCCC/C=C\CCCCCCCC(=O)O` [Oleic acid], the toxicity to nematodes entry in series [4] was “relatively nontoxic”.
On to `CCCCCCCCCC(=O)O` [decanoic acid], for which the “kill of second stage juveniles” value in series [4] is on record as “killed all”.
On to `CCCCCCCC/C=C\CCCCCCCC(=O)[O-].[K+]` [potassium oleate], for which, in series [4], the toxicity to nematodes entry is reported as “relatively nontoxic”.
Regarding `CCCCCCCCCCC(=O)O` [undecanoic acid], the “kill of second stage juveniles” value in series [4] is “killed all”.
Regarding “Polyoxyethylene 10 tridecylether [24938-91-8]”, the Mortality of larvae is 0 in series [1] (0.1%, 24 hours); 0 in series [1] (0.1%, 48 hours); 0 in series [1] (0.1%, 72 hours); 2 in series [1] (1.0%, 24 hours); 2 in series [1] (1.0%, 48 hours); 2 in series [1] (1.0%, 72 hours). In addition, the Mortality of larvae in series [1] (3.0%, 24 hours) came out at 0; in series [1] (3.0%, 48 hours) it was 0; in series [1] (3.0%, 72 hours) it was 0; in series [1] (5.0%, 24 hours), 0; in series [1] (5.0%, 48 hours), 3; in series [1] (5.0%, 72 hours), 3.
On to glycol pelargonate, for which the “concentration producing reduced galling of plants” value in series [3] is 6.4 microliters/liter.
